{"source": "paper PMC10528180", "about": "(Foods, 2023)", "key": {"α-glucosidase [1]": {"target": "T1, α-glucosidase (Saccharomyces cerevisiae, UniProt P53341)", "T1 construct": "purchased Sigma-Aldrich Co", "T1 sequence (P53341 whole entry)": "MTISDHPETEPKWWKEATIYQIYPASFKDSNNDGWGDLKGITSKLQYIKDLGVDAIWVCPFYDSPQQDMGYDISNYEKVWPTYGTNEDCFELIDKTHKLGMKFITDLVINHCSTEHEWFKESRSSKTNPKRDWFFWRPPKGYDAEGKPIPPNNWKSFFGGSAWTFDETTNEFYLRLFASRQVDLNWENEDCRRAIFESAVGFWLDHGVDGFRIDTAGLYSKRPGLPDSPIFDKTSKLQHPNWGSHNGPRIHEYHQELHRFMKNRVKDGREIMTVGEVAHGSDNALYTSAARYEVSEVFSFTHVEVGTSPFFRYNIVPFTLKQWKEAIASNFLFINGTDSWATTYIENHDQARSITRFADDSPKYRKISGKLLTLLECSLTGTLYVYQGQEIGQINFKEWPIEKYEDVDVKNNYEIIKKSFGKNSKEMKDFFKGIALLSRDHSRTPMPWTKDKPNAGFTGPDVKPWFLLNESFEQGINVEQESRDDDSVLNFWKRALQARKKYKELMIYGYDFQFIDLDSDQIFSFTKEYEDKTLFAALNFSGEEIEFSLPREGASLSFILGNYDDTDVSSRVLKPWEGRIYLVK", "assay": "biochemical", "procedure": "(§1) The other reagents used in this experiment are analytically pure reagents purchased from Sigma-Aldrich Co. (St. Louis, MI, USA) unless specified otherwise.\n(§2) The in vitro α-glucosidase activity assay was determined using spectrophotometry, as previously reported, with only minor modifications. In phosphate buffer with a pH of 6.8, 0.5 U/mL of α-glucosidase and the appropriate quantity of p-nitrophenyl-D-glucopyranoside (pNGP) were produced. […] Gradient dilution with a phosphate-buffered solution was used to create sample solutions of various concentrations. First, different concentrations of compound (10 μL), an enzyme solution (40 μL), and potassium phosphate buffer (100 μL) were pre-incubated in 96-well plates at 37 °C for 10 min.\n(§3) The enzymatic inhibitory activity of the tested compounds was calculated using the following formula: Inhibition %=[(Abs control−Abs sample)/Abs control]×100\n(§4) The IC50 values of the tested compounds were calculated using nonlinear fitting (logit method)."}, "α-glucosidase [2]": {"target": "T1, α-glucosidase", "assay": "Fluorescence quenching experiment with α-glucosidase (Stern-Volmer, double logarithmic, Van 't Hoff)", "type": "binding", "conditions": "for Kd: Ka (binding constant) α-glucosidase", "procedure": "Based on the previously described techniques, the fluorescence quenching experiment was somewhat modified. […] The reaction solution’s fluorescence intensity was measured in a quartz colorimetric dish using a fluorescence spectrometer (F-7100, Tokyo, Japan) at wavelengths ranging from 295 to 500 nm (emission wavelength) and 280 nm ([…]) (1.0 cm path length). The 5.0 nm excitation and emission slit widths were predetermined.\nBy determining the quenching constant, it is possible to discriminate between dynamic and static protein fluorescence quenching caused by compounds [39]. […] With the increase in temperature, the binding of the complex is unstable, so the quenching constant decreases. The drop in fluorescence intensity brought on by the interaction of the quencher and the fluorescence group is what causes dynamic quenching. When the collision between the quencher and the fluorescence group intensifies as the temperature rises, the quenching constant rises. The quenching mechanism of the enzyme was further studied using the Stern–Volmer equation:(2) F0/F=1+Kqτ0Q=1+Ksv[Q], where Kq is the bimolecular quenching constant, F0 represents the fluorescence intensity of starch-digesting enzymes in the absence of inhibitors, F represents the fluorescence intensity of starch-digesting enzymes in the presence of inhibitors, and τ0 is the lifetime of the fluorophore in protein (about 10^−8 s).\nBy calculating the thermodynamic parameters of the quenching process, the binding affinity and the main force of the reaction process were evaluated. The thermodynamic parameters are calculated using the Van ’t Hoff equation:(4) lnKa=−△H/RT+△S/R. (5) △G=△H−T△S. where Ka is the binding constant, R is the universal gas constant, and T represents the test temperature (300.15 K, 305.15 K, 310.15 K). The thermodynamic parameters ΔH, ΔS, and ΔG represent enthalpy change, entropy change, and free energy change, respectively. […] The interaction forces in the reaction process can be roughly divided into four types: hydrophobic interaction, hydrogen bonding, electrostatic interaction, and van der Waals interaction."}, "db/db mice": {"test_system": "db/db mice", "assay": "Postprandial blood glucose level measurement after oral starch load", "type": "in vivo", "conditions": "for glucose AUC / reduction of glucose AUC of diabetic mice: oral starch 2 g/kg; for reduction of glucose AUC of diabetic mice: vs model", "procedure": "db/db mice and C57BL/6J mice were purchased f0rom Beijing Zhishan Health Medical Research Institute. The animal testing procedure was approved by Beijing Huayuan Times Technology Co., Ltd Ethics Committee on the Management and Welfare of Laboratory Animals. (Ethics review batch number: HYSD2023-04) and strictly follows the local and national codes of ethics. All mice were placed in a control chamber at 25 °C and 60% relative humidity with a light/dark period of 12/12 h. During this period, all mice had free access to normal feed and water. […] All mice were given starch (2 g/kg) orally 60 min after treatment. Blood samples were taken from the caudal vein and blood glucose was measured after 0, 30, 60, and 120 min. The area under the curve (AUC) was calculated using the trapezoidal rule."}, "α-amylase": {"target": "T2, α-amylase (Sus scrofa, UniProt P00690)", "T2 construct": "α-amylase (EC 232-565-6, powder, ≥5 units/mg solid) isolated from porcine pancreas; purchased Sigma-Aldrich Co; host or cells: porcine pancreas", "T2 sequence (P00690 16-511)": "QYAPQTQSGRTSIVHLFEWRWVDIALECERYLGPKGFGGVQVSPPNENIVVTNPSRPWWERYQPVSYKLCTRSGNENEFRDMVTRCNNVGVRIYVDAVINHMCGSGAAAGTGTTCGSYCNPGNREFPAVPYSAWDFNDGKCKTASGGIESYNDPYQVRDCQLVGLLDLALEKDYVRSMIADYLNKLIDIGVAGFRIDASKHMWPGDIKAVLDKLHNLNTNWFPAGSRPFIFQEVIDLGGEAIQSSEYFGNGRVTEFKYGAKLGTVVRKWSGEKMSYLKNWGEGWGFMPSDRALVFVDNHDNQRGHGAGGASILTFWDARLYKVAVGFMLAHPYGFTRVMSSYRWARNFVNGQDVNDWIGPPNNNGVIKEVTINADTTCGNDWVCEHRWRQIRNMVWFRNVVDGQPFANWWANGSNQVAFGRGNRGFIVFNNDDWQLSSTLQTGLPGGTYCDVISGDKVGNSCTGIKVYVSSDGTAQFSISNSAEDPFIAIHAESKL", "assay": "In vitro α-amylase activity assay (G3-CNP, absorbance 405 nm)", "type": "biochemical, porcine", "procedure": "as §1\nas §2, with “modifications. A total” for “modifications. In phosphate buffer with a pH”, “of 5” for “of 6.8, 0.5”, “of α-amylase” for “of α-glucosidase”, “of 2-chloro-4-nitrophenyl α-D-maltotrioside (G3-CNP)” for “of p-nitrophenyl-D-glucopyranoside (pNGP)”\nas §3, §4"}}}
{"smiles": "O=c1c(O)c(-c2ccc(O)c(O)c2)oc2cc(O[C@@H]3O[C@H](CO)[C@@H](O)[C@H](O)[C@H]3O)cc(O)c12", "note": "[Quercimeritrin]", "values": [{"measurement": "IC50", "setting": "α-glucosidase [1]", "result": 79.9, "unit": "µM"}, {"measurement": "inhibition at 500 µM", "setting": "α-glucosidase [1]; read-out: α-Glucosidase inhibition", "result": 92, "unit": "%"}, {"measurement": "fluorescence quenching mechanism, α-glucosidase", "setting": "α-glucosidase [2]", "result": "static quenching"}, {"measurement": "Kd", "setting": "α-glucosidase [2]; T 300.15 K", "result": 1.15, "unit": "µM"}, {"measurement": "Kd", "setting": "α-glucosidase [2]; T 305.15 K", "result": 9.62, "unit": "µM"}, {"measurement": "Kd", "setting": "α-glucosidase [2]; T 310.15 K", "result": 24.4, "unit": "µM"}, {"measurement": "Ksv (quenching constant) α-glucosidase", "setting": "α-glucosidase [2]; T 300.15 K", "result": "0.17 ±0.03 10^5 /M"}, {"measurement": "n (number of binding sites) α-glucosidase", "setting": "α-glucosidase [2]; T 300.15 K", "result": 1.35}, {"measurement": "ΔG α-glucosidase", "setting": "α-glucosidase [2]; T 300.15 K", "result": "-8.15 ± 2.22", "unit": "kcal/mol"}, {"measurement": "Ksv (quenching constant) α-glucosidase", "setting": "α-glucosidase [2]; T 305.15 K", "result": "0.19 ±0.02 10^5 /M"}, {"measurement": "n (number of binding sites) α-glucosidase", "setting": "α-glucosidase [2]; T 305.15 K", "result": 1.20}, {"measurement": "ΔG α-glucosidase", "setting": "α-glucosidase [2]; T 305.15 K", "result": "-7 ± 2.24", "unit": "kcal/mol"}, {"measurement": "Ka (binding constant) α-glucosidase", "setting": "α-glucosidase [2]; T 310.15 K", "result": "0.41 ± 0.06 10^5 /M"}, {"measurement": "Ksv (quenching constant) α-glucosidase", "setting": "α-glucosidase [2]; T 310.15 K", "result": "0.21 ±0.04 10^5 /M"}, {"measurement": "n (number of binding sites) α-glucosidase", "setting": "α-glucosidase [2]; T 310.15 K", "result": 1.09}, {"measurement": "ΔG α-glucosidase", "setting": "α-glucosidase [2]; T 310.15 K", "result": "-6.55 ± 1.87", "unit": "kcal/mol"}, {"measurement": "ΔH α-glucosidase", "setting": "α-glucosidase [2]; Van 't Hoff, 300.15-310.15 K", "result": "-56.6 ± 5.598", "unit": "kcal/mol"}, {"measurement": "ΔS α-glucosidase", "setting": "α-glucosidase [2]; Van 't Hoff, 300.15-310.15 K", "result": "-677.34 ±87.38", "unit": "J/mol/K"}, {"measurement": "n (number of binding sites) α-glucosidase", "setting": "α-glucosidase [2]; text summary over temperatures", "result": "~1"}, {"measurement": "glucose AUC", "setting": "db/db mice; 100 mg/kg", "result": 43.7, "unit": "mmol·h/L"}, {"measurement": "reduction of glucose AUC of diabetic mice", "setting": "db/db mice; 100 mg/kg", "result": 19.0, "unit": "%"}, {"measurement": "glucose AUC", "setting": "db/db mice; 200 mg/kg", "result": 40.7, "unit": "mmol·h/L"}, {"measurement": "reduction of glucose AUC of diabetic mice", "setting": "db/db mice; 200 mg/kg", "result": 24.5, "unit": "%"}, {"measurement": "postprandial blood glucose level", "setting": "db/db mice; HD group 200 mg/kg, oral starch", "result": "significantly lower than that of the control and acarbose groups"}, {"measurement": "IC50", "setting": "α-amylase", "result": "> 250", "unit": "µM"}, {"measurement": "inhibition at 500 µM", "setting": "α-amylase; at 500 µM, read-out: α-Amylase inhibition", "result": 57, "unit": "%"}]}
